The text below walks through data of US5019505A, “Enzymes having alpha-glycerol-3-phosphate oxidase activity, production and use thereof” (GEnzyme (U.K.) Ltd., priority 1986, dated 1991).

Experiment [1] concerns α-GPO from P. freudenreichii subsp. shermanii (NCIMB 5964). Put plainly: α-GPO assay (Trinder-type H2O2 colour reaction). The format is biochemical. As to conditions: read-out: Km for L-α-glycerol-3-phosphate.
Experiment [2] concerns α-glycerol-3-phosphate oxidase (α-GPO) from Propionibacterium freudenreichii subsp. freudenreichii (DSM 20270). The experiment is described as follows: α-GPO assay (Trinder-type H2O2 colour reaction, 505nm, 37° C.). The format is biochemical. On the procedure: Aliquots of the resulting supernatant containing partially purified α-GPO were used in the following test system: […]
L-α-glycerol-3-phosphate
4-amino-antipyrine 1.5 mM
Dimethylglutarate buffer (DMG; pH 7.5)
The rate of change of absorbance was measured at 505nm, 37° C. in a spectrophotometer.

Experiment [3] relates to α-GPO from P. freudenreichii subsp. freudenreichii (NCIMB 5959). The experiment is described as follows: α-GPO assay (Trinder-type H2O2 colour reaction). As to conditions: read-out: Km for L-α-glycerol-3-phosphate. Format: biochemical.
Experiment [4] concerns α-GPO from P. freudenreichii subsp. shermanii (formerly P. shermanii) (NCIMB 9885). Put plainly: α-GPO assay (Trinder-type H2O2 colour reaction). Particulars: cell-free extract, read-out: Km of the α-GPO for L-α-glycerol-3-phosphate. The format is biochemical, P. freudenreichii subsp. shermanii (NCIMB 9885). On the procedure:
(§1) Freeze-dried cultures of `P. acidi-propionici`(formerly `arabinosum`) NCIMB 5958) and `P. freudenreichii` subsp. `shermanii`(formerly `P. shermanii`) (NCIMB 9885) were obtained from the National Collection of Industrial and Marine Bacteria, Torry Research Station, Aberdeen, Scotland. The organisms were grown in a similar manner to that described above for `P. freudenreichii` subsp. `freudenriechii` (DSM 20270). The microorganisms were harvested, disrupted and assayed for α-GPO again in a similar way to `P. `freudenreichii` subsp. `freudenreichii` (DSM 20270).

Experiment [5] deals with previously described examples of α-GPO. As to conditions: prior art enzymes; read-out: Km values for L-α-glycerol-3-phosphate; cited from earlier work.
Experiment [6] has as its system α-GPO from P. acidi-propionici (formerly arabinosum) (NCIMB 5958). The experiment is described as follows: α-GPO assay (Trinder-type H2O2 colour reaction). The format is biochemical, P. acidi-propionici (NCIMB 5958). Particulars: cell-free extract, read-out: Km of the α-GPO for L-α-glycerol-3-phosphate. The procedure: as §1
The mark [7] stands for this setting: listed as L-α0glycerol-3-phosphate.

Structures are written as SMILES. Where “and” joins values, the source holds several entries; their conditions need not be identical. Equal values may be shown once. Read-outs that look alike come from different tables or passages of the source. Bounds are passed on as bounds.

As a reminder, the Km is the concentration of substrate that gives half-maximal velocity. As for `O=P(O)(O)OC[C@H](O)CO` [L-α-glycerol-3-phosphate], the Km was 6 µM and ~6 µM in experiment [1]; 15 µM in experiment [2] (characterisation of the preferred enzyme, read-out: Michaelis-Menten constant (Km) in respect of L-α-glycerol-3-phosphate); 15 µM in experiment [2] (high speed centrifugation supernatant, DMG pH 7.5, 37° C., 505nm, read-out: Km of the α-GPO for its substrate, L-α-glycerol-3-phosphate); 15 µM in experiment [2] (pooled active fractions after Sephadex G-200 gel filtration, read-out: Km of the α-GPO for its substrate L-α-glycerol-3-phosphate); 15 µM and ~15 µM in experiment [2] (read-out: Km for L-α-glycerol-3-phosphate); 26 µM and ~26 µM in experiment [3]. In addition, the Km in experiment [4] (setting [7]) is 22 µM; in experiment [4], around 22 µM; in experiment [5], at least 2500 µM; in experiment [6] (setting [7]), 18 µM; in experiment [6], around 18 µM. The “fold lower Km value than previously described α-GPO” value in experiment [2] (versus Km of 2.5mM or greater of previously described α-GPO) is listed as 170 fold.
